ChEMBL document CHEMBL1201862, “PubChem BioAssay data set” (2004)
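Step 1: Grow cells in 96-well plates. Step 2: Expose to compound for 48 hours at 5 concentrations. Step 3: Interpolate endpoints linearly; if unreached, use highest concentration. GI50 is the concentration that inhibits growth by half.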 The source made the active and inactive calls. No stated cut-off is given here; in the data, active = GI50 up to about 1.1 µM and inactive = higher.

Key:
Assay in all cases: NCI-60 cell line screen, 48 h
[1] = tested on: 786-0
[2] = tested on: HOP-92
[3] = tested on: MCF7
[4] = tested on: HCT-116
[5] = tested on: DU-145
[6] = tested on: OVCAR-8
[7] = tested on: SK-MEL-5
[8] = tested on: ACHN
[9] = tested on: LOX IMVI
[10] = tested on: TK-10
[11] = tested on: NCI-H460
[12] = tested on: SF-539
[13] = tested on: SNB-75
[14] = tested on: SF-295
[15] = tested on: OVCAR-3
[16] = tested on: U-251
[17] = tested on: CAKI-1
[18] = tested on: RPMI-8226
[19] = tested on: UACC-62
[20] = tested on: PC-3
[21] = tested on: M14
[22] = tested on: NCI-H23
[23] = tested on: SK-MEL-28
[24] = tested on: MOLT-4
[25] = tested on: SF-268
[26] = tested on: IGROV-1
[27] = tested on: SW-620
[28] = tested on: HT-29
[29] = tested on: UACC-257
[30] = tested on: A549
[31] = tested on: NCI-H522
[32] = tested on: KM12
[33] = tested on: CCRF-CEM
[34] = tested on: COLO 205
[35] = tested on: OVCAR-4
[36] = tested on: EKVX
[37] = tested on: T47D
[38] = tested on: Malme-3M
[39] = tested on: MDA-MB-231
[40] = tested on: K562
[41] = tested on: BT-549
[42] = tested on: SK-OV-3
[43] = tested on: MDA-MB-435
[44] = tested on: HL-60
[45] = tested on: HCC 2998
[46] = tested on: HCT-15
[47] = tested on: SR
[48] = tested on: UO-31
[49] = tested on: Hs-578T
[50] = tested on: HOP-62
[51] = tested on: A498
[52] = tested on: OVCAR-5
[53] = tested on: NCI/ADR-RES
[54] = tested on: SN12C
[55] = tested on: RXF 393
[56] = tested on: SNB-19
[57] = tested on: NCI-H226
[58] = tested on: SK-MEL-2
[59] = tested on: MDA-N

N#Cc1ccc(C(=O)/C=C/c2ccc(O)c(O)c2)cc1
GI50 [1]: > 38.4 µM (inactive)
GI50 [2]: 15.5 µM (inactive)
GI50 [3]: 13 µM (inactive)
GI50 [4]: 10.5 µM (inactive)
GI50 [5]: 16.3 µM (inactive)
GI50 [6]: > 40.4 µM (inactive)
GI50 [7]: 15.2 µM (inactive)
GI50 [8]: 17.3 µM (inactive)
GI50 [9]: 11.5 µM (inactive)
GI50 [10]: 14.1 µM (inactive)
GI50 [11]: 16.1 µM (inactive)
GI50 [12]: 15.6 µM (inactive)
GI50 [13]: 17.4 µM (inactive)
GI50 [14]: 17.7 µM (inactive)
GI50 [15]: 15.8 µM (inactive)
GI50 [16]: 13.4 µM (inactive)
GI50 [17]: 15.3 µM (inactive)
GI50 [18]: 3.1 µM (inactive)
GI50 [19]: 17.1 µM (inactive)
GI50 [20]: 15.3 µM (inactive)
GI50 [21]: 18.2 µM (inactive)
GI50 [22]: 16.9 µM (inactive)
GI50 [23]: 15.5 µM (inactive)
GI50 [24]: 8.38 µM (inactive)
GI50 [25]: 14.1 µM (inactive)
GI50 [26]: 12.8 µM (inactive)
GI50 [27]: 13.2 µM (inactive)
GI50 [28]: 16.4 µM (inactive)
GI50 [29]: 16.2 µM (inactive)
GI50 [30]: 15.3 µM (inactive)
GI50 [31]: 1.53 µM (inactive)
GI50 [32]: 13.9 µM (inactive)
GI50 [33]: 1.4 µM (inactive)
GI50 [34]: 16.7 µM (inactive)
GI50 [35]: 12.4 µM (inactive)
GI50 [36]: 17.2 µM (inactive)
GI50 [37]: 16.3 µM (inactive)
GI50 [38]: 15.7 µM (inactive)
GI50 [39]: 15.6 µM (inactive)
GI50 [40]: 7.1 µM (inactive)
GI50 [41]: 12.6 µM (inactive)
GI50 [42]: 21.9 µM (inactive)
GI50 [43]: 14.4 µM (inactive)
GI50 [44]: 2.5 µM (inactive)
GI50 [45]: 14.8 µM (inactive)
GI50 [46]: 15.5 µM
GI50 [47]: 1.57 µM (inactive)
GI50 [48]: 12.4 µM (inactive)
GI50 [49]: 24.4 µM (inactive)
GI50 [50]: 17.9 µM (inactive)
GI50 [51]: 17.7 µM (inactive)
GI50 [52]: 17.7 µM (inactive)
GI50 [53]: > 43 µM (inactive)
GI50 [54]: 15.5 µM (inactive)
GI50 [55]: 16.8 µM (inactive)
GI50 [56]: 15.8 µM (inactive)
GI50 [57]: 20.2 µM (inactive)
GI50 [58]: 17.3 µM (inactive)
GI50 [59]: 14.9 µM (inactive)

Cc1nc2ccccc2n1Cc1ccc(NC(=S)Nc2ccccc2)cc1
GI50 [1]: > 100 µM (inactive)
GI50 [2]: 61.9 µM (inactive)
GI50 [3]: 27.4 µM (inactive)
GI50 [4]: 31.6 µM (inactive)
GI50 [5]: 73.8 µM (inactive)
GI50 [6]: 60.1 µM (inactive)
GI50 [7]: 12.3 µM (inactive)
GI50 [8]: 35.2 µM (inactive)
GI50 [9]: 70.6 µM (inactive)
GI50 [10]: > 100 µM (inactive)
GI50 [11]: 92.3 µM (inactive)
GI50 [12]: 23.8 µM (inactive)
GI50 [13]: 63.8 µM (inactive)
GI50 [14]: 34.3 µM (inactive)
GI50 [15]: 27.9 µM (inactive)
GI50 [16]: 82.6 µM (inactive)
GI50 [17]: 77.4 µM (inactive)
GI50 [18]: 50 µM (inactive)
GI50 [19]: 58.7 µM (inactive)
GI50 [20]: 75.7 µM (inactive)
GI50 [21]: 56.1 µM (inactive)
GI50 [22]: 83.9 µM (inactive)
GI50 [23]: 66.7 µM (inactive)
GI50 [24]: 23.3 µM (inactive)
GI50 [25]: 91 µM (inactive)
GI50 [26]: > 100 µM (inactive)
GI50 [27]: 45 µM (inactive)
GI50 [28]: 32.8 µM (inactive)
GI50 [29]: 32.7 µM (inactive)
GI50 [30]: 80 µM (inactive)
GI50 [31]: 21.9 µM (inactive)
GI50 [32]: 54.6 µM (inactive)
GI50 [33]: 36.8 µM (inactive)
GI50 [34]: 34.8 µM (inactive)
GI50 [35]: 28.6 µM (inactive)
GI50 [36]: 21.1 µM (inactive)
GI50 [37]: 18.6 µM (inactive)
GI50 [38]: 30.4 µM (inactive)
GI50 [39]: 36.4 µM (inactive)
GI50 [40]: 33.4 µM (inactive)
GI50 [41]: 61.1 µM (inactive)
GI50 [42]: > 100 µM (inactive)
GI50 [43]: 46.9 µM (inactive)
GI50 [44]: 24.8 µM (inactive)
GI50 [45]: 92 µM (inactive)
GI50 [46]: 72.8 µM
GI50 [47]: 20.2 µM (inactive)
GI50 [48]: > 100 µM (inactive)
GI50 [49]: > 100 µM (inactive)
GI50 [50]: > 100 µM (inactive)
GI50 [51]: 28.7 µM (inactive)
GI50 [52]: 37.1 µM (inactive)
GI50 [53]: 72.3 µM (inactive)
GI50 [54]: 76.4 µM (inactive)
GI50 [55]: 60 µM (inactive)
GI50 [56]: > 100 µM (inactive)
GI50 [57]: 82.4 µM (inactive)
GI50 [58]: 73.8 µM (inactive)
GI50 [59]: 31 µM (inactive)
